Patent US20260225889A1, “Spherical nanoparticles for improved composite materials” (Stichting Radboud universitair medisch centrum, priority 2023, published 2026)

Key:
[1] = test system: intracellular S. aureus-mCherry; type: cell-based, S. aureus strain RN4220; conditions: 24 h; for survival of intracellular S. aureus: systemically delivered: dissolved zinc (300 μM), dissolved vancomycin (5.5 μM), versus 'no treatment'
Experimental: S. aureus strain RN4220 expressing mCherry fluorescent protein (S. aureus-mCherry) was used for in vitro studies. Bacterial inoculums were prepared by culturing S. aureus-mCherry in tryptic soy broth (TSB; BD Difco, Leeuwarden, the Netherlands) supplemented with 10 μg/mL chloramphenicol (Merck) shaking at 120 rpm and 37° C. to the mid logarithmic growth phase. S. aureus-mCherry bacteria were pelleted by centrifugation (3000 g, 10 min), re-suspended in 1 mL of NaCl and 0.25 mL human serum (H1 serum, Bio Whittaker, MD, USA) and incubated for 20 min. The inoculum was adjusted to 10^8 CFU/mL with RPMI based on the optical density value at wavelength 620 (OD620). The human THP-1 macrophages were seeded as described above in 96-well plates at a concentration of 100.000 cells/cm^2. After 48 h, the media was replaced by 1 μL of the bacterial inoculum (bacteria to cell ratio of 1:1) and incubated for 45 min at 37° C. and 5% CO2. Afterwards, the human THP-1 macrophages were washed three times with 50 μL PBS and one time with 200 μL PBS to prevent carry-over of planktonic S. aureus-mCherry. RPMI media supplemented with 5 μg/mL gentamycin (Sigma-Aldrich) was added to control the extracellular growth of S. aureus-mCherry.
The human THP-1 macrophages were allowed to phagocytose S. aureus-mCherry as described above. To investigate the intracellular killing efficiency of the synthesized NPs, RPMI media with 5 μg/ml gentamycin was enriched with 50 μg/ml of synthesized NPs for 24 h. Moreover, to assess the synergistic effect of zinc and vancomycin, a combination of 20 mol % ZnHA and VGelA NPs was added to the co-culture in different concentrations. After 24 h, the human THP-1 macrophages were lysed with 100 μl of 0.025% TritonX-100 to determine the amount of intracellular S. aureus-mCherry number. After lysis, the solution was serial diluted in PBS and spot-plated on agar plates. […] Additionally, the viability of the THP-1 macrophages is assessed using a LIVE/DEAD cell viability assay (Invitrogen, Waltham, MA, USA) as mentioned above. […]

human THP-1 macrophages [2] = assay: LIVE/DEAD cell viability assay of THP-1 macrophages with phagocytosed S. aureus; type: cell-based; conditions: systemic zinc 75 μM, 24 h
Experimental: Additionally, a LIVE/DEAD cell viability assay (Invitrogen, Waltham, MA, USA) was used according to the manufacturer's instructions to visualize the cells after 24 h of phagocytosis. In brief, 100 μL of 4 μM Ethidium homodimer 1 and 2 μM calcein AM solution in PBS was added to the human THP-1 macrophages and incubated for 30 min before visualization using a Leica SP8-X DLS Lightsheet microscope (Leica Microsystems, Wetzlar, Germany). Human THP-1 macrophages without phagocytosed S. aureus-mCherry served as negative control. The amount of living cells were quantified by counting using three LIVE/DEAD images and compared between macrophages with and without phagocytosed S. aureus.
The human THP-1 macrophages were allowed to phagocytose S. aureus-mCherry as described above. To investigate the intracellular killing efficiency of the synthesized NPs, RPMI media with 5 μg/ml gentamycin was enriched with 50 μg/ml of synthesized NPs for 24 h. Moreover, to assess the synergistic effect of zinc and vancomycin, a combination of 20 mol % ZnHA and VGelA NPs was added to the co-culture in different concentrations. […] Additionally, the viability of the THP-1 macrophages is assessed using a LIVE/DEAD cell viability assay (Invitrogen, Waltham, MA, USA) as mentioned above. […]

human THP-1 macrophages [3] = assay: Internalization of labelled nanoparticles in human THP-1 macrophages (confocal overlay); type: cell-based
Experimental: For cell culture experiments, human THP-1 macrophages (American Type Culture Collection, Manassas, USA) were maintained in Roswell Park Memorial Institute (RPMI) 1640 media supplemented with 2 mM Glutamine (GIBCO, New York, NY, USA) and 100/fetal bovine serum (FBS, Sigma-Aldrich). The human THP-1 macrophages were sub-cultured once a week and incubated at 37° C. in a humidified atmosphere containing 5% CO2. The human THP-1 macrophages were passaged by centrifugation when reaching a confluency of 10^6 cells/mL. In the following experiments, cell seeding is performed with media enriched with 50 ng/ml phorbol 12-myristate 13-acetate (PMA; Sigma-Aldrich) to allow for adherence of cells over 48 h.
Human THP-1 macrophages were cultured as described above and seeded with a density of 200.000 cells/cm^2 in an 8-well μ-slide (ibidi, Gräfelfing, Germany) for 48 h. Labeled NPs were diluted in RPMI cell culture medium to reach a final concentration of 50 μg/mL. Afterwards 200 μL particle suspension was added to the human THP-1 macrophages. […] The image analysis software Fiji was used for the reconstruction of images, and the plugin “co-localization finder” was used to visualize the overlaying signal in white and quantify the fluorescence overlay of different channels.

Row | Compound | survival of intracellular S. aureus [1] | effect on intracellular S. aureus survival ([1]; systemic zinc 75 μM) | amount of alive cells (LIVE/DEAD images) (human THP-1 macrophages [2]) | internalization by human THP-1 macrophages (human THP-1 macrophages [3]; dissolved, no NPs) | Overlay (%) (human THP-1 macrophages [3]; fluorescently labelled NPs 50 μg/mL in THP-1 macrophages, confocal co-localization)
1 | [Zn] [zinc] | did not cause a significant reduction | reduction of intracellular S. aureus survival | visually decreased the amount of alive cells | – | –
2 | FITC-vancomycin | – | – | – | inability | 0%
3 | CN[C@H](CC(C)C)C(=O)N[C@H]1C(=O)N[C@@H](CC(N)=O)C(=O)N[C@H]2C(=O)N[C@H]3C(=O)N[C@H](C(=O)N[C@H](C(=O)O)c4cc(O)cc(O)c4-c4cc3ccc4O)[C@H](O)c3ccc(c(Cl)c3)Oc3cc2cc(c3O[C@@H]2O[C@H](CO)[C@@H](O)[C@H](O)[C@H]2O[C@H]2C[C@](C)(N)[C@H](O)[C@H](C)O2)Oc2ccc(cc2Cl)[C@H]1O [vancomycin] | did not cause a significant reduction | – | – | – | –
